Assay results taken from ChEMBL document CHEMBL1147627, “Synthesis of cinnamic acids and related isosteres as potent and selective alpha v beta 3 receptor antagonists” (Bioorg Med Chem Lett, 2004).

Key:
Integrin alpha-V/beta-3 [1] = target: T1, Integrin alpha-V/beta-3 (Homo sapiens, UniProt P05106+P06756); assay: Binding affinity towards alpha V/beta3 receptor by solid-phase receptor binding assays (SPRA); type: protein-complex assay
Integrin alpha-V/beta-1 = Integrin alpha-V/beta-1 (Homo sapiens, UniProt P05556+P06756); assay: Binding affinity towards alpha V-beta1 receptor expressed in HEK293 cells; type: cell-based
Integrin alpha-V/beta-3 [2] = target: T1, Integrin alpha-V/beta-3; assay: Binding affinity towards alpha V-beta3 receptor expressed in HEK293 cells; type: cell-based
Integrin alpha-V/beta-5 = Integrin alpha-V/beta-5 (Homo sapiens, UniProt P06756+P18084); assay: Binding affinity towards alpha V-beta5 receptor expressed in HEK293 cells; type: cell-based
[3] = target: Integrin alpha-IIb/beta-3 (Homo sapiens, UniProt P05106+P08514); assay: Binding affinity towards alpha IIb/beta3 integrin by solid-phase receptor binding assay (SPRA); type: protein-complex assay
Integrin alpha-IIb/beta-3, sequence (P05106 27-788 limits assumed): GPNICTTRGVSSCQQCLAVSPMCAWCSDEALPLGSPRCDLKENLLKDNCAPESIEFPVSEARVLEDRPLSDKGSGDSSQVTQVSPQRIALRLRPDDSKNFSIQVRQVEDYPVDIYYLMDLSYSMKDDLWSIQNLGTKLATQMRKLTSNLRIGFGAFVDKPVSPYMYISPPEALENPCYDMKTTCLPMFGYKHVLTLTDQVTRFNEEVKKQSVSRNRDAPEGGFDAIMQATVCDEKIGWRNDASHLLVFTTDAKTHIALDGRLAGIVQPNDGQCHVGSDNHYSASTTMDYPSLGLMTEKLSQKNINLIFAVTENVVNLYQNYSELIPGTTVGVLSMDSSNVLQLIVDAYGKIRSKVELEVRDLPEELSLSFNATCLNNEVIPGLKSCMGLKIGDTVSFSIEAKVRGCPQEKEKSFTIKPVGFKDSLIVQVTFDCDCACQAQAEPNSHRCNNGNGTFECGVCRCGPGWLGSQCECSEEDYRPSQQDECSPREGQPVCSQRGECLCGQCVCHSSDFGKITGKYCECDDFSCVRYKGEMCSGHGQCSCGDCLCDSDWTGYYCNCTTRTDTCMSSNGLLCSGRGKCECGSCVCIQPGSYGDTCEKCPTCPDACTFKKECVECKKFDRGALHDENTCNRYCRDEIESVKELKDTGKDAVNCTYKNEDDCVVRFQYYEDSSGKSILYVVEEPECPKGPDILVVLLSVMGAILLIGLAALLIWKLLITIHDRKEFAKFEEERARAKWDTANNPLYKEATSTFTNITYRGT
Integrin alpha-IIb/beta-3, sequence (P08514 32-887 limits assumed): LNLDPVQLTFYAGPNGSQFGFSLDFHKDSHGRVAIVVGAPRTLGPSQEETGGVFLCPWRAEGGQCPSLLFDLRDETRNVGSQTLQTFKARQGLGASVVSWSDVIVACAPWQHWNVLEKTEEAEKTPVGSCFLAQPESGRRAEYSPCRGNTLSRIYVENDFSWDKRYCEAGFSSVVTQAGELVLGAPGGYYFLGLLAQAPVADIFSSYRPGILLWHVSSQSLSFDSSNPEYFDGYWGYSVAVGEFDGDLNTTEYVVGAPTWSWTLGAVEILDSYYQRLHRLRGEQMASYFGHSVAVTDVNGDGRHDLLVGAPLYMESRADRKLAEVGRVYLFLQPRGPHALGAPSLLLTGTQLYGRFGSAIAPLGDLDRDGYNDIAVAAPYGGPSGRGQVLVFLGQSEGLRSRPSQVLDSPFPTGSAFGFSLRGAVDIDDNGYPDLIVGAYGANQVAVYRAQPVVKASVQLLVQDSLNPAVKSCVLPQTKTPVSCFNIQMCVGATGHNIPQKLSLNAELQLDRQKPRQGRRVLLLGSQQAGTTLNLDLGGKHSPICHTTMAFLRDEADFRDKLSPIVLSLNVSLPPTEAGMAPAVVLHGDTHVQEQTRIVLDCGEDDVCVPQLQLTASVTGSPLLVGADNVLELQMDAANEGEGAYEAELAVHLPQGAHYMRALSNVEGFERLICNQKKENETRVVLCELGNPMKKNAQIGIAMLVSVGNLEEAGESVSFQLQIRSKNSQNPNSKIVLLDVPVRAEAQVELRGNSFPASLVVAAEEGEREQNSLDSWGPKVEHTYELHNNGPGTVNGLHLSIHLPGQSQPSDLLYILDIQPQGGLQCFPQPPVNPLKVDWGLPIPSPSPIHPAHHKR
Integrin alpha-IIb/beta-3, sequence (P08514 891-1039 limits assumed): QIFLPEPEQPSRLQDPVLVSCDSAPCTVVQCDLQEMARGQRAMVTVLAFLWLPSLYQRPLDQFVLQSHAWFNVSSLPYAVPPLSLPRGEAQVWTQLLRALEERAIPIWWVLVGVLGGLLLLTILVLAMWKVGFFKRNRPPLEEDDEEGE

Integrin alpha-V/beta-1, sequence (P05556 21-798 limits assumed): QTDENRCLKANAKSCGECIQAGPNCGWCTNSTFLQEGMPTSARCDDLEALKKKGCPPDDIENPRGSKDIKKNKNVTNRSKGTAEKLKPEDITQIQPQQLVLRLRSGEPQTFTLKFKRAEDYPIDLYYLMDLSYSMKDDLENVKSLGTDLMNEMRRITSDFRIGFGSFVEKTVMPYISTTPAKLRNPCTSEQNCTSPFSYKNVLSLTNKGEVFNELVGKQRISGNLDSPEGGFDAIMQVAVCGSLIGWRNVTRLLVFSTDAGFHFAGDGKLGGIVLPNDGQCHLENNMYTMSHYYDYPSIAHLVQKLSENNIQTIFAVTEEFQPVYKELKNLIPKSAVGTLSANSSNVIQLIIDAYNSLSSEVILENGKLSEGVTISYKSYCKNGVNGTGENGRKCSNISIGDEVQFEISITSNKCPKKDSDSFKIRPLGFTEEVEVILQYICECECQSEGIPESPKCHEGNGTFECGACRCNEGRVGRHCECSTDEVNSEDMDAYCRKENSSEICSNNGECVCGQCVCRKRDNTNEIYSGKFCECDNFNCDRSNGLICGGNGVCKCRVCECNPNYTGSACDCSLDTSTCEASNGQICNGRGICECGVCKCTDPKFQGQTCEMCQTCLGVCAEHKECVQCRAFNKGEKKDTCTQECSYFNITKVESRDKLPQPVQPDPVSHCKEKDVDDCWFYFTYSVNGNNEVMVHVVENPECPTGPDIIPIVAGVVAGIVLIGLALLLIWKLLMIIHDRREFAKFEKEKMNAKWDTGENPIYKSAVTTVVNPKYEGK
Integrin alpha-V/beta-1, sequence (P06756 31-889 limits assumed): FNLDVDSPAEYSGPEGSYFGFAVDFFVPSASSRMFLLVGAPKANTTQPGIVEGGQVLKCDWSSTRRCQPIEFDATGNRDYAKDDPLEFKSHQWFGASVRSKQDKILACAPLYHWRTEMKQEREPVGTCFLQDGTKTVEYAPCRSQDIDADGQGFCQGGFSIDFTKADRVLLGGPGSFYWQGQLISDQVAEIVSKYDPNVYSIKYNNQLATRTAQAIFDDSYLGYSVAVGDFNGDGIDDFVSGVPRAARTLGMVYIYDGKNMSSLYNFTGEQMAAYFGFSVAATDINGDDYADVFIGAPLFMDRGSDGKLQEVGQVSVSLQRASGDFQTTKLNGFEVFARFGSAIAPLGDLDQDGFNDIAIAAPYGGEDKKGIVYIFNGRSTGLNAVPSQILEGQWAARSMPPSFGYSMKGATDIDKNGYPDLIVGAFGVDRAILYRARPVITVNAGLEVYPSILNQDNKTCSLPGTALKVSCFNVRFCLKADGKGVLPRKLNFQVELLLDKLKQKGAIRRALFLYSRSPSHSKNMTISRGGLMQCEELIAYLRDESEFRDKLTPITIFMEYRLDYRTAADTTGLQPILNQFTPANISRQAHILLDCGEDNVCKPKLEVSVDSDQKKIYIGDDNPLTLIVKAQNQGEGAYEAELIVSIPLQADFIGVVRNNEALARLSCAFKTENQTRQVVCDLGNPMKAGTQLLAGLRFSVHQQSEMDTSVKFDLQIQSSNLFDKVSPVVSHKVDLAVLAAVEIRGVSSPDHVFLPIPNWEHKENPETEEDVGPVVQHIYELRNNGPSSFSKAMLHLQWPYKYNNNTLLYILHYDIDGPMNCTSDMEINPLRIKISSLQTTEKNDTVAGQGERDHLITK
Integrin alpha-V/beta-1, sequence (P06756 891-1048 limits assumed): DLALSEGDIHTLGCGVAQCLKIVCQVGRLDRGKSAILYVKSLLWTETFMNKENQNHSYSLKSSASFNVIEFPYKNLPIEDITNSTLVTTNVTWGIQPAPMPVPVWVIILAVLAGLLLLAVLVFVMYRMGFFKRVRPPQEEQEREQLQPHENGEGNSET
Integrin alpha-V/beta-5, sequence (P06756 31-889 limits assumed): as the sequence (P06756 31-889 limits assumed) above
Integrin alpha-V/beta-5, sequence (P06756 891-1048 limits assumed): as the sequence (P06756 891-1048 limits assumed) above
Integrin alpha-V/beta-5, sequence (P18084 24-799 limits assumed): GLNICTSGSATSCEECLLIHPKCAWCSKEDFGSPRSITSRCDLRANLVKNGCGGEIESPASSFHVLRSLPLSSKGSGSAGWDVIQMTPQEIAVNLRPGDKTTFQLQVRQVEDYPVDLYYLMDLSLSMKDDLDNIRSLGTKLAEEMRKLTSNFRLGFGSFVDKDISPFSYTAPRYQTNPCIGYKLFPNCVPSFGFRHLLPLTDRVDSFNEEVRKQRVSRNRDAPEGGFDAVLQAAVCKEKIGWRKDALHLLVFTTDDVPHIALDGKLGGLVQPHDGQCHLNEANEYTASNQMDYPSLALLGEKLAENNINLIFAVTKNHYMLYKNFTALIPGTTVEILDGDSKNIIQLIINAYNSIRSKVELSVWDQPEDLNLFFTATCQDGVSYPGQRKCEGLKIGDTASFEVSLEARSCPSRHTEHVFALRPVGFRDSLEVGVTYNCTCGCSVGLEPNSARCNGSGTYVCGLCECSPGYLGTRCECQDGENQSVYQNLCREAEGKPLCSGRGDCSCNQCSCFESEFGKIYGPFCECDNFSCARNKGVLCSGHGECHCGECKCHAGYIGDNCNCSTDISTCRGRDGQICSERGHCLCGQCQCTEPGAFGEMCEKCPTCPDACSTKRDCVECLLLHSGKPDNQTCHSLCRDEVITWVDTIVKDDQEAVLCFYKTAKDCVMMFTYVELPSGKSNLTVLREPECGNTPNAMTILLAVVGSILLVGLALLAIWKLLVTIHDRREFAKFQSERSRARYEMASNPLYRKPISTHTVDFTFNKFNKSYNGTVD
T1 sequence (P05106 27-788 limits assumed): as the sequence (P05106 27-788 limits assumed) above
T1 sequence (P06756 31-889 limits assumed): as the sequence (P06756 31-889 limits assumed) above
T1 sequence (P06756 891-1048 limits assumed): as the sequence (P06756 891-1048 limits assumed) above

Row | Structure (SMILES) | IC50 (Integrin alpha-V/beta-3 [1]) | IC50 (Integrin alpha-V/beta-1) | IC50 (Integrin alpha-V/beta-3 [2]) | IC50 (Integrin alpha-V/beta-5) | IC50 [3]
1 | CC(C)(C)OC(=O)NC(Cc1ccc(NC(=O)c2cccc(N=C(N)N)c2)cc1)C(=O)O (stereo not drawn) | – | 6.7 nM | 2.5 nM | 1 nM | –
2 | COc1cc(NC(=O)c2cccc(NC3=NCCCN3)c2)ccc1OCC(=O)O | 0.43 nM | 82 nM | 1.7 nM | 29 nM | –
3 | N=C(N)Nc1cccc(C(=O)Nc2cc(Cl)c(/C=C/C(=O)O)c(Cl)c2)c1 | – | – | – | – | 25000 nM
4 | COc1cc(NC(=O)c2cccc(NC(=N)N)c2)ccc1CC(NC(=O)OC(C)C)C(=O)O (stereo not drawn) | 1.1 nM | 1.1 nM | 0.32 nM | 0.38 nM | –
5 | COc1cc(NC(=O)c2cccc(N=C(N)N)c2)ccc1OCC(=O)O | 3.2 nM | 222 nM | 4.3 nM | 102 nM | –
6 | O=C(O)CCc1ccc(NC(=O)c2cccc(NC3=NCCCN3)c2)cc1C(=O)O | 6.1 nM | – | – | – | –
7 | N=C(N)Nc1cccc(C(=O)Nc2ccc(OCC(=O)O)cc2)c1 | – | 351 nM | 11.9 nM | 144 nM | –
8 | N=C(N)Nc1cccc(C(=O)Nc2ccc(CC(NS(=O)(=O)c3ccccc3)C(=O)O)cc2)c1 (stereo not drawn) | – | 18.3 nM | 0.2 nM | 8.1 nM | –
9 | NC(N)=Nc1cccc(C(=O)Nc2ccc(CCC(=O)O)cc2)c1 | – | 758 nM | 10.9 nM | 135 nM | –
10 | CS(=O)(=O)NC(Cc1ccc(NC(=O)c2cccc(N=C(N)N)c2)cc1)C(=O)O (stereo not drawn) | – | 29 nM | 0.98 nM | 3.1 nM | –
11 | CC(=O)NC(Cc1ccc(NC(=O)c2cccc(N=C(N)N)c2)cc1)C(=O)O (stereo not drawn) | – | 16 nM | 2.6 nM | 40 nM | –
12 | COc1cc(NC(=O)c2cccc(NC3=NCCCN3)c2)ccc1CCC(=O)O | 5.8 nM | 162 nM | 5.6 nM | 16.6 nM | –
13 | CC(C)(C)NC(=O)NC(Cc1ccc(NC(=O)c2cccc(N=C(N)N)c2)cc1)C(=O)O (stereo not drawn) | 3.2 nM | 4.8 nM | 2.9 nM | 3 nM | –
14 | CC(C)OC(=O)NC(Cc1ccc(NC(=O)c2cccc(N=C(N)N)c2)cc1)C(=O)O (stereo not drawn) | – | 0.47 nM | 2.6 nM | 0.76 nM | 22 nM

Further lines, results first:

Row | IC50 (Integrin alpha-V/beta-3 [1]) | IC50 (Integrin alpha-V/beta-1) | IC50 (Integrin alpha-V/beta-3 [2]) | IC50 (Integrin alpha-V/beta-5) | IC50 [3] | Structure (SMILES)
15 | 1.2 nM | – | – | – | – | N=C(N)Nc1cccc(C(=O)Nc2ccc(/C=C/C(=O)O)c(C(=O)O)c2)c1
16 | – | 426 nM | 9.6 nM | 45 nM | – | N=C(N)Nc1cccc(C(=O)Nc2ccc(/C=C/C(=O)O)cc2F)c1
17 | 10.3 nM | – | – | – | 38 nM | COc1cc(/C=C/C(=O)O)ccc1NC(=O)c1cccc(NC(=N)N)c1
18 | 3.9 nM | 507 nM | 3.8 nM | 26 nM | 641 nM | O=C(O)/C=C/c1ccc(NC(=O)c2cccc(NC3=NCCCN3)c2)cc1Cl
19 | 3 nM | – | – | – | – | CCc1cc(/C=C/C(=O)O)ccc1NC(=O)c1cccc(NC(=N)N)c1
20 | – | 109 nM | 13.1 nM | 39 nM | – | N=C(N)Nc1cccc(C(=O)Nc2ccc(/C=C/C(=O)O)cc2)c1
21 | 23 nM | – | – | – | 45 nM | N=C(N)Nc1cccc(C(=O)Nc2ccc(/C=C/C(=O)O)c(Cl)c2)c1
22 | 0.16 nM | 0.68 nM | 0.35 nM | 0.41 nM | 1000 nM | COc1cc(NC(=O)c2cccc(NC3=NCCCN3)c2)ccc1CC(NC(=O)OC(C)C)C(=O)O (stereo not drawn)
23 | – | 85 nM | 1.7 nM | 13 nM | – | O=C(O)/C=C/c1ccc(NC(=O)c2cccc(NC3=NCCCN3)c2)c(Cl)c1
24 | 31 nM | 339 nM | 65 nM | 149 nM | – | N=C(N)Nc1cccc(C(=O)Nc2ccc(C3CC3C(=O)O)cc2)c1 (stereo not drawn)
25 | – | 264 nM | 3 nM | 29 nM | – | Cc1cc(/C=C/C(=O)O)cc(C)c1NC(=O)c1cccc(NC2=NCCN2)c1
26 | – | 17.7 nM | 0.94 nM | 0.89 nM | – | CC(C)OC(=O)NC(Cc1ccc(NC(=O)c2cccc(NC3=NC(=O)CN3)c2)cc1)C(=O)O (stereo not drawn)
27 | 0.11 nM | 10.4 nM | 0.12 nM | 0.96 nM | 6 nM | O=C(Nc1ccc(CC(NS(=O)(=O)c2ccccc2)C(=O)O)cc1)c1cccc(NC2=NCCCN2)c1 (stereo not drawn)
28 | 0.27 nM | – | – | – | 12.5 nM | O=C(Nc1ccc(CC(NS(=O)(=O)c2ccccc2)C(=O)O)cc1)c1cccc(NC2=NCCN2)c1 (stereo not drawn)
29 | – | 320 nM | 40 nM | 69 nM | – | O=C(Nc1ccc(C2CC2C(=O)O)cc1)c1cccc(NC2=NCCCN2)c1 (stereo not drawn)
30 | 2.2 nM | – | – | – | 661 nM | COc1cc(NC(=O)c2cccc(NC3=NCCCN3)c2)ccc1/C=C/C(=O)O
31 | 2 nM | 219 nM | 1.8 nM | 7.6 nM | 528 nM | O=C(O)/C=C/c1ccc(NC(=O)c2cccc(NC3=NCCCN3)c2)cc1
32 | – | 60 nM | 1.7 nM | 9.6 nM | – | Cc1cc(/C=C/C(=O)O)ccc1NC(=O)c1cccc(NC2=NCCCN2)c1
33 | – | 505 nM | 19.4 nM | 49 nM | – | Cc1cc(NC(=O)c2cccc(NC(=N)N)c2)ccc1/C=C/C(=O)O
34 | – | 426 nM | 5.9 nM | 60 nM | – | N=C(N)Nc1cccc(C(=O)Nc2ccc(/C=C/C(=O)O)cc2Cl)c1
35 | – | 2070 nM | 21 nM | 116 nM | – | Cc1cc(/C=C/C(=O)O)cc(C)c1NC(=O)c1cccc(NC(=N)N)c1
